From patent publication US12187742B2 (XRAD Therapeutics, Inc., priority 2018, dated 2025)
Structures can show the parent of a compound that is named as a salt.

Key:
[1] = target: ATM (Homo sapiens (Human), UniProt Q13315); test: ATM in Cell Western Assay (pKAP1 in etoposide-treated MCF-7 cells); type: cell-based; conditions: MCF-7 cells, etoposide 100 μM, 1 hr, pKAP1 readout
Summary of the method: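 Cells received compounds in a 10-dose, 3-fold series from a 1 μM final top concentration, then 100 μM etoposide, for 1 hr at 37° C. They were then fixed with paraformaldehyde and permeabilized with 0.1% Triton X-100. After immunostaining, plates were scanned on an infrared imager.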

[2] = target: DNA-PK (Homo sapiens (Human), UniProt P78527); test: DNA-PK Enzyme-Linked Immunosorbent Assay (phosphorylation of GST-p53 (1-101) peptide); type: biochemical; conditions: ELISA, ATP 20 μM
Protocol: Assay of Compounds ATM and DNA-PK Inhibition
remove wash solution, turn plate upside down onto a thin paper towel and centrifuge at 1000 rpm for 1 min to absorb all wash buffer. Clean the bottom of plate with moist lint free paper. Scan plate immediately using ODYSSEY CLx (LI-COR) for the best results. DNA-PK Enzyme-Linked Immunosorbent Assay:
On day one, coat 96-well plate (ThermoFisher. Cat #: 442404) with GST-p53 (1-101) peptide (purified by Pharmaron, BCS department) by diluting 3 μg of GST-p53 each well with 0.1 M Na2CO3/NaHCO3, pH 9.6. Incubate the plate overnight at 4° C. The second day, remove coating buffer, wash 2× with PBST (1×PBS containing 0.1% Tween-20). Then add DNA-PK enzyme solution (Invitrogen, #PR9107A; the final DNA-PK concentration is 0.1 μg/mL), series dilution compounds (the final top concentration is 100 nM, 3 fold series dilution, with total 10 doses) and ATP solution (the final ATP concentration is 20 μM) to the 96-well plate. Incubate the plate at 25° C. for 1 hour. Then wash 3× with PBST (1×PBS containing 0.1% Tween-20). Block the plate with PBST+ 1% BSA at 4° C. overnight. The third day, wash 4× with PBST (1×PBS containing 0.1% Tween-20). Then add Phospho-p53 primary antibody (cell signaling Technology, #9286, Phospho-p53 (Ser15) (16G8) Mouse mAb) (1/1000) to each well. Seal with plate and incubate the plate for 1 h at 37° C. Wash 4× with PBST (1×PBS containing 0.1% Tween-20), add 100 μL of HRP-linked secondary antibody (Cell signaling Technology, #7076, Anti-mouse IgG, HRP-linked Antibody) (1/1000) to each well. Seal with tape and incubate the plate for 30 min at 37° C. Wash 4× with PBST (1×PBS containing 0.1% Tween-20), add 100 μL of TMB (Cell signaling Technology, #7004) substrate to each well. Seal with tape and incubate the plate for 10 min at 37° C. Then add 100 μL of Stop solution (Cell signaling Technology, #7002) to each well. Read the plate at 450 nm to detect absorption.

ATM, sequence (Q13315 whole entry): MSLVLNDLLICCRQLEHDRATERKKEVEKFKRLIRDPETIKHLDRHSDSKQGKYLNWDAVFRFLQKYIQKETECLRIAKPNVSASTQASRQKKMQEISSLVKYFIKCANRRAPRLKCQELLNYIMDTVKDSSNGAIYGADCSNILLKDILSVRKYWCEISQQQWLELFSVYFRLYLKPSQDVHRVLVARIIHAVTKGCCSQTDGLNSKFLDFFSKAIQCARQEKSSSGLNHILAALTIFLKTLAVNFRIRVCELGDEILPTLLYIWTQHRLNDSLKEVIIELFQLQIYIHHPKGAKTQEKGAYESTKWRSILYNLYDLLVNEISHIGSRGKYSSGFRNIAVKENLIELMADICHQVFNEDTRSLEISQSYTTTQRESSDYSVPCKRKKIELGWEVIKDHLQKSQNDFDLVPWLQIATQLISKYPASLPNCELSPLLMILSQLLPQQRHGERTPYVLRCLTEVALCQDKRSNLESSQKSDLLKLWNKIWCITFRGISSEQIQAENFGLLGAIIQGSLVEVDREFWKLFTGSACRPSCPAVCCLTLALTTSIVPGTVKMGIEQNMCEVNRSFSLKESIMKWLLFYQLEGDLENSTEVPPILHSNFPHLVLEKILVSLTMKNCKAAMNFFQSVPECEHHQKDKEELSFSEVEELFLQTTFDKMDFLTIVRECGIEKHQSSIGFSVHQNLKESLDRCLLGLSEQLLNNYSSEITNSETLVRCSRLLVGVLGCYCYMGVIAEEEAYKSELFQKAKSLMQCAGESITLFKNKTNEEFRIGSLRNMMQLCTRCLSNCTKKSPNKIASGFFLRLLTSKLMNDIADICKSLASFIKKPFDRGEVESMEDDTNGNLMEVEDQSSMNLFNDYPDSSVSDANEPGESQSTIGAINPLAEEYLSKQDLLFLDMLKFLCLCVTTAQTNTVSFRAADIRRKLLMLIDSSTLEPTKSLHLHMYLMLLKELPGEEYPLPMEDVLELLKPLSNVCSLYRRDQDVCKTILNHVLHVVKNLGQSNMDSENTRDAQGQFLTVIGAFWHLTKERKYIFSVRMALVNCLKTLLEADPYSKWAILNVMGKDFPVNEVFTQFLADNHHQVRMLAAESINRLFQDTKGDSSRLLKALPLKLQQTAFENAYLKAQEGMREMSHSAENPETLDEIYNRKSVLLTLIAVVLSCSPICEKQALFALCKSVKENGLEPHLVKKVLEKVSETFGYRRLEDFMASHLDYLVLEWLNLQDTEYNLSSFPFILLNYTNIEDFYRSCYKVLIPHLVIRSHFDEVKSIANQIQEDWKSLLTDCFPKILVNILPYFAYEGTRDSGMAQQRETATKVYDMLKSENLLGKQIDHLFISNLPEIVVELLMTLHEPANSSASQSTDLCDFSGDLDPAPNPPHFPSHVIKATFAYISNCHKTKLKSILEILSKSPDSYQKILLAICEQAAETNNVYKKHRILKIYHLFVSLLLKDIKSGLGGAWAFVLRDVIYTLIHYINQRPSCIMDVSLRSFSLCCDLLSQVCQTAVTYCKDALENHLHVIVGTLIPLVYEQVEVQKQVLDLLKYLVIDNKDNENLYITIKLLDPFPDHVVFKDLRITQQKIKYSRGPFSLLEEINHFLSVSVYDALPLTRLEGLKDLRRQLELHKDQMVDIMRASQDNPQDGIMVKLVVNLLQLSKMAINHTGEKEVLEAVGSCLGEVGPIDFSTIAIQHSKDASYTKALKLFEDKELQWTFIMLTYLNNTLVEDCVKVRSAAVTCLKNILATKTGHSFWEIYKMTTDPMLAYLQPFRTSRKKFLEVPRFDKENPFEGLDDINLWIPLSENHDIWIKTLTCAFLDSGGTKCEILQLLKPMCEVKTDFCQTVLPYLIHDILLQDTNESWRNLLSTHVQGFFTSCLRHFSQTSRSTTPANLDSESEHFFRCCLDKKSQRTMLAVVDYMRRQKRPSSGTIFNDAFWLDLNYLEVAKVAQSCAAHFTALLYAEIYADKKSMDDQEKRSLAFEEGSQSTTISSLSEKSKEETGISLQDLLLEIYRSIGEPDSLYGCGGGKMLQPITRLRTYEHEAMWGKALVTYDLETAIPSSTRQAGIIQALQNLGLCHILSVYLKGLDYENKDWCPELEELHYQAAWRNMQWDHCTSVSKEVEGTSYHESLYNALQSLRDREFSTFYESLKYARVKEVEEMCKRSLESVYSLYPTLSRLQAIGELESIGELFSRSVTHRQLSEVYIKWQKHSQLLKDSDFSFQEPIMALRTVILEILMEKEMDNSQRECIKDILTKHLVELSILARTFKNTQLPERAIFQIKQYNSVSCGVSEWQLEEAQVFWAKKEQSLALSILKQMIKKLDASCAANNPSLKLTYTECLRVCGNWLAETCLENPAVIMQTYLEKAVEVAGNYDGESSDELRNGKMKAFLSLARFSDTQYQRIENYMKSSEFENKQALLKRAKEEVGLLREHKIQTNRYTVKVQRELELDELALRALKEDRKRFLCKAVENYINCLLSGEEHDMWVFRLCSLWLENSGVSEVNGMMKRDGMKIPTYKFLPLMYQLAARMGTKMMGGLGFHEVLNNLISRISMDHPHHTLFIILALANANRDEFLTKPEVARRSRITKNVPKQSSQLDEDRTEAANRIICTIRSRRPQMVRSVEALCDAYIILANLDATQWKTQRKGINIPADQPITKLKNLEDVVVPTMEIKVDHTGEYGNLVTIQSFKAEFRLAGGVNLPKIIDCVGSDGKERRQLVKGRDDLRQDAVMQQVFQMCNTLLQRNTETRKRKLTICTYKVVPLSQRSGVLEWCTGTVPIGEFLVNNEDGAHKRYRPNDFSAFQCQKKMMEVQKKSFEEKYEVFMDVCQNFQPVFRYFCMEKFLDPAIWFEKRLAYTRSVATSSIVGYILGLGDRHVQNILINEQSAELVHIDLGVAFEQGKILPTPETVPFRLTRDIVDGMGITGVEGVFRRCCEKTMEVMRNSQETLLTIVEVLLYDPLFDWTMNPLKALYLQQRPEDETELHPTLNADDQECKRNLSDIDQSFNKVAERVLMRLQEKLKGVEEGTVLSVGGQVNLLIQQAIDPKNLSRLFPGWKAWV

Row | SMILES | IC50 [1] [nM] | IC50 [2] [nM]
1 | CN(C)CCCOc1ncc(-c2ccc3ncc4c(c3c2)C2(COC2)C(=O)N4C)cc1NS(=O)(=O)C1CC1 [Example 47, N-(2-(3-(Dimethylamino)propoxy)-5-(3′-methyl-2′-oxo-2′,3′-dihydrospiro [oxetane-3,1′-pyrrolo[2,3-c]quinolin]-8′-yl)pyridin-3-yl)cyclopropanesulfonamide] | 1 to 100 | 1 to 100
2 | CN1C(=O)C2(CC2)c2c1cnc1ccc(-c3cnc(N)nc3)cc21 [Example 48, 8′-(2-Aminopyrimidin-5-yl)-3′-methylspiro [cyclopropane-1,1′-pyrrolo [2,3-c]quinolin]-2′(3′-H)-one] | 1 to 100 | 0.5 to 1
3 | CN1CCN(c2ncc(-c3ccc4ncc5c(c4c3)C3(CC3)C(=O)N5C)cc2NS(=O)(=O)c2ccccc2)CC1 [Example 49, N-(5-(3′-Methyl-2′-oxo-2′,3′-dihydrospiro[cyclopropane-1,1′-pyrrolo[2,3-c]quinolin]-8′-yl)-2-(4-methylpiperazin-1-yl)pyridin-3-yl)benzenesulfonamide] | 0.5 to 1 | < 0.5
4 | CN1CCCN(c2ncc(-c3ccc4ncc5c(c4c3)C3(CC3)C(=O)N5C)cc2NS(=O)(=O)c2ccccc2)CC1 [Example 53, N-(2-(4-Methyl-1,4-diazepan-1-yl)-5-(3′-methyl-2′-oxo-2′,3′-dihydrospiro[cyclopropane-1,1′-pyrrolo[2,3-c]quinolin]-8′-yl)pyridin-3-yl)benzenesulfonamide] | 1 to 100 | 1 to 100
5 | COc1cc(-c2ccc3ncc4c(c3c2)C2(CC2)C(=O)N4C)cnc1OCCCN(C)C [Example 54, 8′-(6-(3-(Dimethylamino)propoxy)-5-methoxypyridin-3-yl)-3′-methylspiro[cyclopropane-1,1′-pyrrolo[2,3-c]quinolin]-2′(3′-H)-one] | 0.5 to 1 | > 100
6 | CN(C)CCCCOc1ncc(-c2ccc3ncc4c(c3c2)C2(CC2)C(=O)N4C)cc1NS(=O)(=O)C1CC1 [Example 56, N-(2-(4-(Dimethylamino)butoxy)-5-(3′-methyl-2′-oxo-2′,3′-dihydrospiro [cyclopropane-1,1′-pyrrolo[2,3-c]quinolin]-8′-yl)pyridin-3-yl)cyclopropanesulfonamide] | 1 to 100 | 1 to 100
7 | Cc1cc(-c2ccc3ncc4c(c3c2)C2(CC2)C(=O)N4C)cnc1OCCCN(C)C [Example 57, 8′-(6-(3-(Dimethylamino)propoxy)-5-methylpyridin-3-yl)-3′-methylspiro[cyclopropane-1,1′-pyrrolo[2,3-c]quinolin]-2′(3′-H)-one] | 1 to 100 | 1 to 100
8 | CN1C(=O)C2(CC2)c2c1cnc1ccc(-c3cnc(OCCCN4CCCC4)c(NS(=O)(=O)c4ccccc4)c3)cc21 [Example 58, N-(5-(3′-Methyl-2′-oxo-2′,3′-dihydrospiro[cyclopropane-1,1′-pyrrolo[2,3-c]quinolin]-8′-yl)-2-(3-(pyrrolidin-1-yl)propoxy)pyridin-3-yl)benzenesulfonamide] | < 0.5 | < 0.5
9 | CN(C)CCCOc1ncc(-c2ccc3ncc4c(c3c2)C2(CC2)C(=O)N4C)cc1OCc1ccccc1 [Example 59, 8′-(5-(Benzyloxy)-6-(3-(dimethylamino)propoxy)pyridin-3-yl)-3methylspiro [cycloproane-1,1′-pyrrolo [2,3-c]quinolin]-2′(3′-)-one] | 1 to 100 | 1 to 100
10 | CCS(=O)(=O)Nc1cc(-c2ccc3ncc4c(c3c2)C2(CC2)C(=O)N4C)cnc1OCCCN(C)C [Example 61, N-(2-(3-(Dimethylamino)propoxy)-5-(3′-methyl-2′-oxo-2′,3′-dihydrospiro [cyclopropane-1,1′-pyrrolo[2,3-c]quinolin]-8′-yl)pyridin-3-ylethanesulfonamide hydrochloride] | 1 to 100 | 1 to 100
11 | CN1C(=O)C2(CC2)c2c1cnc1ccc(-c3cnc4ncccc4c3)cc21 [Example 62, 3′-Methyl-8′-(1,8-naphthyridin-3-yl)spiro[cyclopropane-1,1′-pyrrolo[2,3-c]quinolin]-2′(3′-H)-one] | 1 to 100 | 1 to 100
12 | CN(C)CCCOc1ccc(-c2ccc3ncc4c(c3c2)C2(CC2)C(=O)N4C)cc1NS(=O)(=O)c1ccccc1 [Example 63, N-(2-(3-(Dimethylamino)propoxy)-5-(3′-methyl-2′-oxo-2′,3′-dihydrospiro[cyclopropane-1,1′-pyrrolo[2,3-c]quinolin]-8′-yl)phenyl)benzenesulfonamide] | 0.5 to 1 | 1 to 100
13 | CN(C)CCCOc1ncc(-c2ccc3ncc4c(c3c2)C2(CC2)C(=O)N4C)cc1NS(C)(=O)=O [Example 64, N-(2-(3-(Dimethylamino)propoxy)-5-(3′-methyl-2′-oxo-2′,3′-dihydrospiro[cyclopropane-1,1′-pyrrolo[2,3-c]quinolin]-8′-yl)pyridin-3-yl) methanesulfonamide] | 1 to 100 | < 0.5
14 | CN(C)CCCOc1ncc(-c2cc3c4c(cnc3cc2F)N(C)C(=O)C42CC2)cc1NS(=O)(=O)c1ccccc1 [Example 65, N-(2-(3-(Dimethylamino)propoxy)-5-(7′-fluoro-3′-methyl-2′-oxo-2′,3′-dihydrospiro [cyclopropane-1,1′-pyrrolo[2,3-c]quinolin]-8′-yl)pyridin-3-yl) benzenesulfonamide] | 1 to 100 | 1 to 100
15 | CN(C)CCCOc1ncc(-c2cc3c4c(cnc3cc2F)N(C)C(=O)C42CC2)cc1NS(=O)(=O)C1CC1 [Example 66, N-(2-(3-(Dimethylamino)propoxy)-5-(7′-fluoro-3′-methyl-2′-oxo-2′,3′-dihydrospiro[cyclopropane-1,1′-pyrrolo[2,3-c]quinolin]-8′-yl)pyridin-3-yl) cyclopropanesulfonamide] | 1 to 100 | 1 to 100
16 | CN1C(=O)C2(CC2)c2c1cnc1ccc(-c3cnc(OCCCN4CCCCC4)c(NS(=O)(=O)c4ccccc4)c3)cc21 [Example 67, N-(5-(3′-Methyl-2′-oxo-2′,3′-dihydrospiro[cyclopropane-1,1′-pyrrolo[2,3-c]quinolin]-8′-yl)-2-(3-(piperidin-1-yl)propoxy)pyridin-3-yl)benzenesulfonamide] | 0.5 to 1 | < 0.5
17 | CN1C(=O)C2(CC2)c2c1cnc1ccc(-c3cnc(OCCCN4CCCCC4)c(NS(=O)(=O)C4CC4)c3)cc21 [Example 68, N-(5-(3′-Methyl-2′-oxo-2′,3′-dibydrospiro[cyclopropane-1,1′-pyrrolo[2,3-c]quinolin]-8′-yl)-2-(3-(piperidin-1-yl)propoxy)pyridin-3-yl)cyclopropanesulfonamide] | 1 to 100 | < 0.5
18 | CN(C)CCCOc1ncc(-c2ccc3ncc4c(c3c2)C2(CC2)C(=O)N4C)cc1NS(=O)(=O)C1CCC1 [Example 69, N-(2-(3-(Dimethylamino)propoxy)-5-(3′-methyl-2′-oxo-2′,3′-dihydrospiro[cyclopropane-1,1′-pyrrolo[2,3-c]quinolin]-8′-yl)pyridin-3-yl)cyclobutanesulfonamide] | 1 to 100 | 1 to 100
19 | CN(C)CCCNc1ncc(-c2ccc3ncc4c(c3c2)C2(CC2)C(=O)N4C)cn1 [Example 70, 8′-(2-((3-(Dimethylamino)propyl)amino)pyrimidin-5-yl)-3′-methylspiro[cyclopropane-1,1′-pyrrolo[2,3-c]quinolin]-2′(3′-H)-one] | 1 to 100 | 1 to 100
20 | CN(C)CCCOc1ncc(-c2ccc3ncc4c(c3c2)C2(CC2)C(=O)N4C)cn1 [Example 71, 8′-(2-(3-(Dimethylamino)propoxy)pyrimidin-5-yl)-3′-methylspiro [cyclopropane-1,1′-pyrrolo[2,3-c]quinolin]-2′(3′-H)-one] | 1 to 100 | > 100
21 | CN(C)CCCOc1ncc(-c2ccc3ncc4c(c3c2)CC2(CCC2)C(=O)N4C)cc1NS(=O)(=O)c1ccccc1 [Example 73, N-(2-(3-(Dimethylamino)propoxy)-5-(4-methyl-3-oxo-3,4-dihydro-1H-spiro[benzo[f][1,7]naphthyridine-2,1′-cyclobutan]-9-yl)pyridin-3-yl)benzenesulfonamide] | 1 to 100 | 1 to 100
22 | CNCCCCOc1ncc(-c2ccc3ncc4c(c3c2)C2(CC2)C(=O)N4C)cc1NS(=O)(=O)c1ccccc1 [Example 75, N-(5-(3-Methyl-2′-oxo-2′,3′-dihydrospiro [cyclopropane-1,1′-pyrrolo[2,3-c]quinolin]-8′-yl)-2-(4-(methylamino)butoxy)pyridin-3-yl) benzenesulfonamide] | 1 to 100 | 1 to 100
